We go through two molecules from patent US20060165785A1, “Method of chemically stabilizing pharmaceutical formulations with cholesterol” (priority 2005, published 2006).

The nature of the data set: Chemical stability of composite particles in lactose carrier blend stored at 60° C. and 75% relative humidity for seven days. It is filed as physicochemical. On the procedure:
A 20 gram blend of 5% cholesterol coated salmeterol particles was prepared with a concetration of 0.8% w/w salmeterol base in alpha lactose monohydrate. Approximately 10 grams of alpha lactose monohydrate with target particle size of 65-85μm (Borcula, The Netherlands) was weighed into the bottom of a 120 mL amber glass jar. 0.247g of 5% cholesterol coated salmeterol HNA was added on top of the lactose and 9.77 g of lactose was added on top of the mixture. The mixture was blended using a Turbula T2F blender at 96 RPM for 5 minutes. The jar was removed from the blender and excess blend was tapped from the top of the jar. One additional blending cycle was performed for 5 minutes at 96 RPM to complete the process.
Samples of particles prepared in accordance with Example 2 above were stored in controlled atmospheric conditions of 60° C. and 75% relative humidity for seven days. The percentage of active ingredient was taken at day 0 and day 7. […] When cholesterol was included, the degradation was reduced to less than 2%.
It has been observed that micronized SX degrades at 60 ° C. and 75% relative humidity (RH) conditions when in a neat blend with lactose.

With `NS(=O)(=O)c1cccc(CCCCOCCCCCCNC[C@H](O)c2ccc(O)c(CO)c2)c1` [Micronized GW597901M, 3-(4-{[6-({(2R)-2-hydroxy-2-[4-hydroxy-3-(hydroxymethyl)phenyl]ethyl}amino)hexyl]oxy}-butyl)benzene-sulfonamide], the “% Impurities of Composite Particles in 0.4% GW597901M Base/Lactose Blend, 7 Days at 60° C. and 75% RH” value (0.4% GW597901M base/lactose blend, 7 days at 60° C. and 75% RH) stood at 10.0%. Moreover, under “0.4% GW597901M base/lactose blend, initial”, the “% Impurities of Composite Particles in 0.4% GW597901M Base/Lactose Blend, Initial” value turned out to be 3.9%.
For `OCc1cc(C(O)CNCCCCCCOCCCCc2ccccc2)ccc1O` (stereo not drawn) [Micronized SX, salmeterol xinafoate], the “% Impurities of Composite Particles in 0.8% Salmeterol Base/Lactose Blend, 7 Days at 60° C. and 75% RH” value was found to be 7.4% (0.8% salmeterol base/lactose blend, 7 days at 60° C. and 75% RH); 8.0% (0.8% salmeterol base/lactose blend, 7 days at 60° C. and 75% RH, listed as MIC SX from alternate study). Also, the “% Impurities of Composite Particles in 0.8% Salmeterol Base/Lactose Blend, Initial” value (0.8% salmeterol base/lactose blend, initial (day 0)) amounted to 0.5%. Moreover, the “drop in the amount of SX present in the formulation (degradation) at day 7” value (formulation with carrier, 60° C. and 75% relative humidity, day 7 vs day 0) turned out to be 7%.
